The target of series [1] is α−Glucosidase (from yeast). In words: In vitro α−glucosidase inhibitory activity assay (PNPG substrate). The note with it: n=3; acarbose positive control. It counts as biochemical. The procedure: The α−glucosidase inhibitory activity assay method of A. tenuissimum flower flavonoids was slightly modified based on previous studies. A 96−well plate was used for preparing the mixture consisting of 0.1 M PBS (pH 6.8), 1.0 mg/mL sample solution, and 2 U/mL α−glucosidase, which were incubated at 37 °C for 10 min. 20 μL PNPG solution (2.5 Mm, dissolved in PBS) was added to each well to start the reaction and incubated at 37 °C. Twenty minutes later, 80 μL Na2CO3 solution (0.2 mol/L) was added to each well to terminate the reaction. The absorbance was measured at 405 nm by Tecan Infinite M200 PRO (Tecan Trading Co. Ltd., Shanghai, China). […] The inhibitory rate was calculated by the absorbance formula below:Inhibition% = [1 − (Aa − Ab) / Ac] × 100% a. 20 μL PNPG + 80 μL Na2CO3 + 20 μL PBS + 20 μL sample + 20 μL enzyme; b. 20 μL PNPG + 80 μL Na2CO3 + 40 μL PBS +20 μL sample; c. 20 μL PNPG + 80 μL Na2CO3 + 40 μL PBS + 20 μL enzyme.

On the set-up of series [2]: method as in TCMSP database. Particulars: filter condition; ref TCMSP database; cited from earlier work.

The structures appear in SMILES notation.

As usually defined, the IC50 is the concentration that inhibits the measured activity by half. Lower therefore signals greater potency in that assay. In turn, `CC(=O)OCC1OC(OC2C(C)OC(Oc3c(-c4ccc(O)cc4)oc4cc(O)cc(O)c4c3=O)C(O)C2O)C(O)C(O)C1O` (centres unmarked) [AF−1, multiflorin A] returned an IC50 in series [1] of 289 ± 14 µM.

As to `O=c1c(O)c(-c2ccc(O)cc2)oc2cc(O)cc(O)c12` [AF−8, kaempferol], in series [2], the “Oral bioavailability (OB)” value was no less than 30%.

Turning to `CC(C)=CCc1cc(-c2oc3cc(O)cc(O)c3c(=O)c2O)ccc1O` [AF−11, isolicoflavonol], it took 176 ± 6 µM to reach half-maximal inhibition in series [1] (IC50). In addition, in series [2], the “Oral bioavailability (OB)” value is recorded as no less than 30%.

Take `COc1ccc(-c2oc3cc(OC)cc(O)c3c(=O)c2OC2OC(CO)C(O)C(O)C2O)cc1` (centres unmarked) [AF−15, kaempferol−4’,7−dimethyl−3−O−glucoside]: the IC50 in series [1] was 506 ± 1 µM.

Turning to `CN1[C@H]2C[C@H](OC(=O)[C@H](CO)c3ccccc3)C[C@@H]1[C@@H](O)C2` [AF−23, anisodamine], the “Oral bioavailability (OB)” value in series [2] is listed as no less than 30%.

With `O=C(C=Cc1ccc(O)cc1)OCC1OC(Oc2c(-c3ccc(O)cc3)oc3cc(O)cc(O)c3c2=O)C(O)C(O)C1OC(=O)C=Cc1ccc(O)cc1` (stereo not drawn) [AF−33, kaempferol−3−O−β−D−4′′,6′′− di−(E)−p−coumaroyl glucoside], 300 ± 23 µM corresponded to half-maximal inhibition in series [1] (IC50).

As for `O=c1c(OC2OC(COC3OC(CO)C(O)C(O)C3OC3OC(CO)C(O)C(O)C3O)C(O)C(O)C2O)c(-c2ccc(O)cc2)oc2cc(O)cc(O)c12` (stereo not drawn) [AF−34, kaempferol 3−O−β−D−glucopyranosyl−(1→2) −β−D−glucopyranosyl−(1→6)−β−D−glucopyranodide], the IC50 in series [1] was 335 ± 1 µM.

Molecule `COc1cc(-c2oc3cc(O)cc(O)c3c(=O)c2OC2OC(COC(C)=O)C(O)C(O)C2O)ccc1O` (stereo not drawn) [AF−36, isorhamnetin 3−O−β−D−(6−acetyl)−galactopyranoside] registered an IC50 in series [1] of 326 ± 13 µM.

In series [1], `COc1ccc(-c2oc3cc(O)cc(O)c3c(=O)c2O)cc1CC=C(C)C` [AF−38, macasiamenol B] returned an IC50 of 230 ± 34 µM.

In turn, `COc1ccc(-c2oc3cc(O)cc(O)c3c(=O)c2OC2OC(CO)C(O)C(O)C2O)cc1O` (centres unmarked) [AF−40, tamarixin] displayed an IC50 in series [1] of 282 ± 3 µM.

Source of the values: article PMC9571170, “Exploring Active Ingredients, Beneficial Effects, and Potential Mechanism of Allium tenuissimum L. Flower for Treating T2DM Mice Based on Network Pharmacology and Gut Microbiota” (Nutrients, 2022).
